Data taken from patent US20260085062A1, “NOVEL COMPOUNDS AS CK2 INHIBITORS” (Cambridge Enterprise Limited, priority 2022, published 2026).

Assays:
intracellular CK2α = target: T1, intracellular CK2α (Homo sapiens, UniProt P19784); assay: Cell-based NanoBRET assay for inhibitor binding to intracellular CK2α; conditions: HCT116 cells transiently transfected with CSNK2A2-NanoLuc fusion vector; Tracer K-5; 2 h; read-out: Assay 3: NanoBRET ™ assay for binding to intracellular CK2α
T1 construct: host or cells: HCT116 (ATCC CCL-247)
Method in brief: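 Living cells expressing NanoLuc-CK2α fusion were given a fixed tracer concentration, and compounds competitively displaced the reversibly bound tracer. Donor (450 nm) and acceptor (610 or 630 nm) emissions were read; BRET ratio = (acceptor/donor)×1,000, giving apparent intracellular affinity.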

CLK2 = target: T2, CLK2 (Homo sapiens, UniProt P49760); assay: Biochemical assay for inhibitors of CLK2 kinase activity (ADP-Glo); conditions: 20 nM CLK2, 50 μM peptide substrate, 100 μM ATP, read-out: Assay 2: CLK2 Enzyme IC50
T2 construct: purchased Carna Biosciences 04-127

CK2α = target: T3, CK2α (Homo sapiens, UniProt P68400); assay: Biochemical assay for inhibitors of CK2α kinase activity (ADP-Glo); conditions: 0.2 nM CK2α, 50 μM peptide substrate, 15 μM ATP, read-out: Assay 1: CK2α Enzyme IC50
T3 construct: CK2α (residues 2-329) was produced in Escherichia coli BL21 (DE3) for kinase activity screening; His6 (N, cleaved yes); made in house; host or cells: Escherichia coli BL21 (DE3)
T3 sequence (P68400 2-329): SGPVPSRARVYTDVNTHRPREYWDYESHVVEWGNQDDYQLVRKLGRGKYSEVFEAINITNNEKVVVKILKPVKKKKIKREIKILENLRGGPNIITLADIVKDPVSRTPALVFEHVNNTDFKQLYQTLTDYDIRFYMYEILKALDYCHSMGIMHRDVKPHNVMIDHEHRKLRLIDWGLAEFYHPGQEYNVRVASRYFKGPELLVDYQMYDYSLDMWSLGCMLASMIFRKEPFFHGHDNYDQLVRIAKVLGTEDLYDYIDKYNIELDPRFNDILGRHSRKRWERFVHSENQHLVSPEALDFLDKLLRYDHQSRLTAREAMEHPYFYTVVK

T2 sequence (P49760 whole entry): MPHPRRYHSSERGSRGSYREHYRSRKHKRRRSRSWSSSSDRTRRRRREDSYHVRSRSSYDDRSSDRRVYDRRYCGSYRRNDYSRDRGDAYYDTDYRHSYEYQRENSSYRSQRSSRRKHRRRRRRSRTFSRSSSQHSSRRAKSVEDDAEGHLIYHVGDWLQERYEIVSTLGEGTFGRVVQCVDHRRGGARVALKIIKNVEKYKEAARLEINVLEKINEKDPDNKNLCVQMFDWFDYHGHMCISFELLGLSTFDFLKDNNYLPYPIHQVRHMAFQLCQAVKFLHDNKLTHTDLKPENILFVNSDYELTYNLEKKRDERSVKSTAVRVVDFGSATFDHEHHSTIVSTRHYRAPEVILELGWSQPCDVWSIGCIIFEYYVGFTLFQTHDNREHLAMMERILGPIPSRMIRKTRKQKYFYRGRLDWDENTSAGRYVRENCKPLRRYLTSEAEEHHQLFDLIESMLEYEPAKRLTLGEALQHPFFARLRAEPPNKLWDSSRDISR
T1 sequence (P19784 whole entry, the tested form may be a part): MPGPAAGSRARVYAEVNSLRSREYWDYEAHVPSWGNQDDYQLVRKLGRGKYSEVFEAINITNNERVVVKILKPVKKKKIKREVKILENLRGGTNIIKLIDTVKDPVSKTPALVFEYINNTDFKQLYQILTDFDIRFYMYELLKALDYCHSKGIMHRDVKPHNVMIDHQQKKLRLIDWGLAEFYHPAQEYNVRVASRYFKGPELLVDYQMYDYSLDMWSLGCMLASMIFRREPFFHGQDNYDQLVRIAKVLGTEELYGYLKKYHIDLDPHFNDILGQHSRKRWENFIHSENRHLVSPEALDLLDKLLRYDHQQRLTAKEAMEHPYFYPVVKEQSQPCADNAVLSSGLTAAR

| Compound | IC50 (intracellular CK2α) | IC50 (CLK2) | IC50 (CK2α) |
| --- | --- | --- | --- |
| O=C(CCNCc1ccc(OC(F)(F)F)c(Cl)c1)NCCCNc1cc(-c2nnco2)cc2[nH]ncc12 [Example 157, N-(3-((6-(1,3,4-oxadiazol-2-yl)-1H-indazol-4-yl)amino)propyl)-3-((3-chloro-4-(trifluoromethoxy)benzyl)amino)propanamide] | 828 nM | 1650 nM | 9.06 nM |
| O=C(CCNCc1ccc(OC2CCC2)c(CO)c1)NCCCNc1cc(-n2cnnc2)cc2[nH]ncc12 [Example 41, N-(3-((6-(4H-1,2,4-triazol-4-yl)-1H-indazol-4-yl)amino)propyl)-3-((4-cyclobutoxy-3-(hydroxymethyl)benzyl)amino)propanamide] | 7620 nM | 78.1 nM | 0.58 nM |
| O=C(CCNCc1ccc(-c2ccccc2)c(Cl)c1)NCCCNc1cc(-n2cnnc2)cc2[nH]ncc12 [Example 11, N-(3-((6-(4H-1,2,4-triazol-4-yl)-1H-indazol-4-yl)amino)propyl)-3-(((2-chloro-[1,1′-biphenyl]-4-yl)methyl)amino)propanamide] | 249 nM | 31.7 nM | 0.29 nM |
| Fc1cc(CNCCCCOC2CN(c3cc(-c4ccnnc4)cc4[nH]ncc34)C2)ccc1OC(F)(F)F [Example 108, N-(3-fluoro-4-(trifluoromethoxy)benzyl)-4-((1-(6-(pyridazin-4-yl)-1H-indazol-4-yl)azetidin-3-yl)oxy) butan-1-amine] | 2380 nM | 2730 nM | 20.9 nM |
| FC(F)(F)c1ccc2[nH]c(CNCCCCOCCOc3cc(-n4cnnc4)cc4[nH]nnc34)cc2c1 [Example 116, 4-(2-((6-(4H-1,2,4-triazol-4-yl)-1H-benzo[d][1,2,3]triazol-4-yl)oxy)ethoxy)-N-((5-(trifluoromethyl)-1H-indol-2-yl)methyl)butan-1-amine] | > 50000 nM | > 50000 nM | 247 nM |
| c1cc(-c2cc(N3CC(OCCCCNCc4cc5cc(OC6CCC6)ccc5[nH]4)C3)c3cn[nH]c3c2)cnn1 [Example 109, N-((5-cyclobutoxy-1H-indol-2-yl)methyl)-4-((1-(6-(pyridazin-4-yl)-1H-indazol-4-yl)azetidin-3-yl)oxy)butan-1-amine] | 2810 nM | 2920 nM | 42.5 nM |
| OCCOc1cc(CNCCCCOCCNc2cccc3[nH]ncc23)cc(OC(F)(F)F)c1 [Example 202, 2-(3-(((4-(2-((1H-indazol-4-yl)amino)ethoxy)butyl)amino)methyl)-5-(trifluoromethoxy)phenoxy)ethan-1-ol] | > 3000 nM | 23300 nM | 216 nM |
| Cn1c(CNCCCCOCCNc2cc(-n3cnnc3)cc3[nH]ncc23)cc2ccc(Cl)cc21 [Example 50, N-(2-(4-(((6-chloro-1-methyl-1H-indol-2-yl)methyl)amino)butoxy)ethyl)-6-(4H-1,2,4-triazol-4-yl)-1H-indazol-4-amine] | 153 nM | 94 nM | 2.2 nM |
| c1cc2[nH]c(CNCCCCOC3CN(c4cc(-c5cnoc5)cc5[nH]ncc45)C3)cc2cc1OC1CCC1 [Example 119, N-((5-cyclobutoxy-1H-indol-2-yl)methyl)-4-((1-(6-(isoxazol-4-yl)-1H-indazol-4-yl)azetidin-3-yl)oxy)butan-1-amine] | 1620 nM | 617 nM | 22.6 nM |
| OCCOc1cc(CNC2CC(COCCOc3cc(-c4cnnc(O)c4)cc4[nH]ncc34)C2)cc(OC(F)(F)F)c1 (stereo not drawn) [Example 199, 5-(4-(2-((3-((3-(2-hydroxyethoxy)-5-(trifluoromethoxy)benzyl)amino)cyclobutyl)methoxy)ethoxy)-1H-indazol-6-yl)pyridazin-3-ol] | 1940 nM | 1210 nM | 21.5 nM |
| O=C(O)c1cc(NCCOCCCCNCc2cc3cc(C(F)(F)F)ccc3[nH]2)c2cn[nH]c2c1 [Example 85, 4-((2-(4-(((5-(trifluoromethyl)-1H-indol-2-yl)methyl)amino)butoxy)ethyl)amino)-1H-indazole-6-carboxylic acid] | > 50000 nM | 37100 nM | 743 nM |

More lines, now with the values ahead:

| IC50 (intracellular CK2α) | IC50 (CLK2) | IC50 (CK2α) | Compound |
| --- | --- | --- | --- |
| 10600 nM | 8780 nM | 212 nM | O=C(CCNCc1ccc(-c2ccccc2)c(Cl)c1)NCCCNc1cc(C2CCOCC2)cc2[nH]ncc12 [Example 90, 3-(((2-chloro-[1,1′-biphenyl]-4-yl)methyl)amino)-N-(3-((6-(tetrahydro-2H-pyran-4-yl)-1H-indazol-4-yl)amino)propyl)propanamide] |
| 2260 nM | 1090 nM | 2.56 nM | O=C(CCNCc1ccc(OC(F)(F)F)c(Cl)c1)NCCCNc1cc(-n2cnnc2)cc2cn[nH]c12 [Example 83, N-(3-((5-(4H-1,2,4-triazol-4-yl)-1H-indazol-7-yl)amino)propyl)-3-((3-chloro-4-(trifluoromethoxy)benzyl)amino)propanamide] |
| 3070 nM | 2040 nM | 31.5 nM | N#CCc1cc(Cl)cc(CNCCCCOC2CN(c3cc(-c4ccnnc4)cc4[nH]ncc34)C2)c1 [Example 133, 2-(3-chloro-5-(((4-((1-(6-(pyridazin-4-yl)-1H-indazol-4-yl)azetidin-3-yl)oxy)butyl)amino)methyl)phenyl)acetonitrile] |
| 26800 nM | 6570 nM | 217 nM | O=C(CCNCc1ccc(OC(F)(F)F)c(Cl)c1)NCCCNc1cccc2[nH]ncc12 [Example 163, N-(3-((1H-indazol-4-yl)amino)propyl)-3-((3-chloro-4-(trifluoromethoxy)benzyl)amino)propanamide] |
| > 50000 nM | > 50000 nM | 138 nM | N#CCc1cc(CNCCCCOCCOc2cc(-n3cnnc3)cc3[nH]nnc23)cc(OC(F)(F)F)c1 [Example 148, 2-(3-(((4-(2-((6-(4H-1,2,4-triazol-4-yl)-1H-benzo[d][1,2,3]triazol-4-yl)oxy)ethoxy)butyl)amino)methyl)-5-(trifluoromethoxy)phenyl)acetonitrile] |
| 8.66 nM | 240 nM | 1.71 nM | C[C@@H](CCCOCCNc1cc(-c2cnns2)cc2[nH]ncc12)NCc1cc(CO)cc(OC(F)(F)F)c1 [Example 207, (S)-(3-(((5-(2-((6-(1,2,3-thiadiazol-5-yl)-1H-indazol-4-yl)amino)ethoxy)pentan-2-yl)amino)methyl)-5-(trifluoromethoxy)phenyl)methanol] |
| 2160 nM | 416 nM | 1.37 nM | Cc1nncn1-c1cc(NCCCNC(=O)CCNCc2ccc(-c3ccccc3)c(Cl)c2)c2cn[nH]c2c1 [Example 71, 3-(((2-chloro-[1,1′-biphenyl]-4-yl)methyl)amino)-N-(3-((6-(3-methyl-4H-1,2,4-triazol-4-yl)-1H-indazol-4-yl)amino)propyl)propanamide] |
| 145 nM | 907 nM | 2.39 nM | O=C(CCNCc1ccc(OC(F)(F)F)c(Cl)c1)NCCCNc1cc(-c2ncns2)cc2[nH]ncc12 [Example 183, N-(3-((6-(1,2,4-thiadiazol-5-yl)-1H-indazol-4-yl)amino)propyl)-3-((3-chloro-4-(trifluoromethoxy)benzyl)amino)propanamide] |
| 3000 nM | 146 nM | 28.1 nM | N#CCc1cc(Cl)cc(CNCCCCOC2CN(c3cc(-n4cnnc4)cc4[nH]ncc34)C2)c1 [Example 131, 2-(3-(((4-((1-(6-(4H-1,2,4-triazol-4-yl)-1H-indazol-4-yl)azetidin-3-yl)oxy)butyl)amino)methyl)-5-chlorophenyl)acetonitrile] |
| 20200 nM | 38.4 nM | 0.62 nM | O=C(CCNCc1cc(Cl)cc(CO)c1)NCCCNc1cc(-n2cnnc2)cc2[nH]ncc12 [Example 43, N-(3-((6-(4H-1,2,4-triazol-4-yl)-1H-indazol-4-yl)amino)propyl)-3-((3-chloro-5-(hydroxymethyl)benzyl)amino)propanamide] |
| 516 nM | 52.9 nM | 0.5 nM | Nc1cc(-c2cc(NCCCNC(=O)CCNCc3ccc(OC(F)(F)F)c(Cl)c3)c3cn[nH]c3c2)cnn1 [Example 188, N-(3-((6-(6-aminopyridazin-4-yl)-1H-indazol-4-yl)amino)propyl)-3-((3-chloro-4-(trifluoromethoxy)benzyl)amino)propanamide] |
| 2800 nM | 2030 nM | 10.2 nM | FC(F)(F)c1ccc2[nH]c(CNCCCCOC3CN(c4cc(-c5ccnnc5)cc5[nH]ncc45)C3)cc2c1 [Example 140, 4-((1-(6-(pyridazin-4-yl)-1H-indazol-4-yl)azetidin-3-yl)oxy)-N-((5-(trifluoromethyl)-1H-indol-2-yl)methyl)butan-1-amine] |
| 2090 nM | 649 nM | 22.1 nM | Cc1cn(-c2cc(NCCCNC(=O)CCNCc3ccc(-c4ccccc4)c(Cl)c3)c3cn[nH]c3c2)cn1 [Example 29, 3-(((2-chloro-[1,1′-biphenyl]-4-yl)methyl)amino)-N-(3-((6-(4-methyl-1H-imidazol-1-yl)-1H-indazol-4-yl)amino)propyl)propanamide] |
